According to PubChem BioAssay (NCI):
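Tested at 5 concentrations; 48 h exposure; 96-well plates; endpoints linearly interpolated, else capped at highest concentration. GI50 = concentration required for 50% inhibition of growth. TGI is the concentration that stops growth completely.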

Assays:
Assay in all cases: NCI tumour cell line growth inhibition, 48 h
[1] = system: MDA-N
[2] = system: DLD-1 colon
[3] = system: DMS 114 small cell lung
[4] = system: DMS 273 small cell lung
[5] = system: M19-MEL melanoma
[6] = system: SNB-78 CNS
[7] = system: XF 498 CNS
[8] = system: RXF-631 renal
[9] = system: HOP-18 NSCLC
[10] = system: P388/ADR leukemia
[11] = system: SN12K1 renal

## COc1ccc(-c2cc(=O)c3c(O)c(OC)c(OC)c(OC)c3o2)cc1
[1]
  TGI: 13 µM

## Nc1c2ccccc2nc2c(C(=O)Nc3ccc(S(N)(=O)=O)cc3)cccc12
[2]
  TGI: > 100 µM
[3]
  TGI: > 100 µM
[4]
  TGI: > 100 µM
[5]
  TGI: > 100 µM
[6]
  TGI: > 100 µM
[7]
  TGI: > 100 µM

## CC(SCc1ccccc1)C(=O)O (stereo not given)
[1]
  TGI: > 100 µM

## COC(=O)C1CCc2nnc(-c3ccccc3)n21 (stereo not given)
[2]
  TGI: > 100 µM
[3]
  TGI: > 100 µM
[5]
  TGI: > 100 µM
[6]
  TGI: > 100 µM
[7]
  TGI: > 100 µM

## c1ccc(OC2=NC3=S(S2)SC(Oc2ccccc2)=N3)cc1
[2]
  TGI: 35 µM
[3]
  TGI: 41 µM
[4]
  TGI: 85.6 µM
[5]
  TGI: 34.7 µM
[8]
  TGI: 52.1 µM
[6]
  TGI: 48.1 µM
[7]
  TGI: 32 µM

## NC(Cc1ccccc1)c1nccs1 (stereo not given)
[1]
  TGI: > 100 µM

## CCC[CH2][Sn]1([CH2]CCC)[S]CC[N]1S(=O)(=O)c1ccc(C)cc1
[2]
  GI50: 1.58 µM
  TGI: 2.99 µM
[3]
  GI50: 0.659 µM
  TGI: 2.09 µM
[4]
  GI50: 1.65 µM
  TGI: 3.16 µM
[5]
  GI50: 1.32 µM
  TGI: 3.03 µM

## CO[C@@]1(c2ccccc2)O[C@H]2OCCC2[C@H]1c1ccc(Cl)cc1 (stereo not given in full)
[2]
  TGI: > 100 µM
[3]
  TGI: > 100 µM
[4]
  TGI: > 100 µM
[9]
  TGI: 99 µM
[8]
  TGI: > 100 µM
[6]
  TGI: > 100 µM
[7]
  TGI: 69.3 µM

## C=C1C(=O)O[C@H]2C[C@@H]1C(=O)CC(C)CCCC(C)=CCC[C@@]2(C)O (stereo not given in full)
[1]
  TGI: > 25 µM

## CC1=NOC(=O)/C1=C/c1ccc2c(c1)OCO2
[1]
  TGI: 85.7 µM

## CC(=O)[O-].N.N.N.N.[Co+3].[O-][Cl+3]([O-])([O-])[O-].[OH3+]
[2]
  GI50: > 100 µM
  TGI: > 100 µM
[4]
  GI50: > 100 µM
  TGI: > 100 µM
[6]
  GI50: > 100 µM
  TGI: > 100 µM

## O=C(O)c1ccc(SSc2ccc(C(=O)O)cn2)nc1
[1]
  TGI: > 100 µM

## C[CH2][Sn]([CH2]C)([O]C(=O)c1ccc(F)cc1)[O]C(=O)c1ccc(F)cc1
[2]
  GI50: 23.9 µM
  TGI: > 65.8 µM
[3]
  GI50: 18.8 µM
  TGI: 39.9 µM
[4]
  GI50: 55.6 µM
  TGI: > 100 µM
[9]
  GI50: 16.1 µM
  TGI: 29.6 µM
[8]
  GI50: 17.5 µM
  TGI: 32.3 µM
[6]
  GI50: 20 µM
  TGI: 37.9 µM
[7]
  GI50: 20.2 µM
  TGI: 37.3 µM

## C[C@@H]1CC[C@@]2(NC1)O[C@H]1C[C@H]3[C@@H]4CC[C@H]5C[C@@H](O)CC[C@]5(C)[C@H]4CC[C@]3(C)[C@H]1[C@@H]2C
[1]
  TGI: > 100 µM

## Nc1ccc(/C=C/c2ccc3cccnc3c2)cc1
[1]
  TGI: > 100 µM

## C=C1C(OC(C)=O)CC(OC(C)=O)C2(C)C(OC(C)=O)C(OC(C)=O)C3=C(C)C(OC(=O)/C=C/c4ccccc4)CC(C(OC(C)=O)C12)C3(C)C (stereo not given)
[2]
  TGI: > 100 µM
[3]
  TGI: > 100 µM
[4]
  TGI: > 100 µM
[9]
  TGI: > 100 µM
[5]
  TGI: > 100 µM
[8]
  TGI: > 100 µM
[6]
  TGI: > 100 µM

## CCOC(=O)CN1C(=O)c2cc([N+](=O)[O-])cc3cc([N+](=O)[O-])cc(c23)C1=O
[2]
  TGI: > 100 µM
[3]
  TGI: > 100 µM
[4]
  TGI: > 100 µM
[9]
  TGI: > 100 µM
[5]
  TGI: > 100 µM
[1]
  TGI: > 100 µM
[8]
  TGI: > 100 µM
[6]
  TGI: > 97.1 µM
[7]
  TGI: > 100 µM

## COCCNc1cncc(C(N)=O)c1
[1]
  TGI: > 100 µM

## CCOC(=O)/C=C/c1cccc(F)c1
[1]
  TGI: > 100 µM

## CCC1=C(CC2NCCc3ccccc32)CC2c3cc(OC)c(OC)cc3CCN2C1 (stereo not given)
[2]
  TGI: > 100 µM
[4]
  TGI: 3.02 µM
[5]
  TGI: 29.5 µM
[1]
  TGI: 8.25 µM
[8]
  TGI: 4.44 µM
[6]
  TGI: 6.77 µM
[7]
  TGI: 13 µM

## O=C([O-])CC(=O)[O-].[NH-][C@@H]1CCCC[C@H]1[NH-].[Pt+4]
[5]
  GI50: 14.3 µM
  TGI: > 100 µM
[1]
  GI50: 19.9 µM
  TGI: > 100 µM
[6]
  GI50: > 100 µM
  TGI: > 100 µM

## C[C@H]1C=C2C(=O)O[C@H]3CC[C@@H](C1)[C@@]23O
[2]
  TGI: 10.7 µM
[3]
  TGI: 8.69 µM
[9]
  TGI: 13.4 µM
[5]
  TGI: 15.1 µM
[6]
  TGI: 9.94 µM

## COC(C)C(O)(C(=O)OCC1=CCN2CCC(O)C12)C(C)(C)O (stereo not given)
[1]
  TGI: > 100 µM

## COc1ccc2c(c1)CCc1c-2n[nH]c1-c1[nH]nc2c1CCc1cc(OC)ccc1-2
[2]
  TGI: > 100 µM
[3]
  TGI: > 100 µM
[4]
  TGI: 52.8 µM
[9]
  TGI: 98.5 µM
[5]
  TGI: > 100 µM
[6]
  TGI: > 100 µM
[7]
  TGI: 71.2 µM

## CC1=CCCC2C(C=O)(C1)CC(C)C2(CO)CC/C(=C/CO)CO (stereo not given)
[2]
  TGI: > 100 µM
[3]
  TGI: > 100 µM
[4]
  TGI: > 100 µM
[9]
  TGI: > 100 µM
[5]
  TGI: > 100 µM
[8]
  TGI: > 100 µM
[6]
  TGI: > 100 µM

## COc1cc(C(=O)c2cocc2C(=O)c2ccc3c(c2)OCO3)cc(OC)c1OC
[2]
  TGI: > 100 µM
[3]
  TGI: > 100 µM
[4]
  TGI: > 100 µM
[9]
  TGI: > 100 µM
[5]
  TGI: > 100 µM
[1]
  TGI: 0.311 µM
[7]
  TGI: 32.1 µM

## CN(N)c1nc(N)c(C#N)c(C#N)c1C#N
[1]
  TGI: > 10 µM

## O/N=C/c1ccc(O)c(O)c1
[2]
  TGI: > 100 µM
[3]
  TGI: > 100 µM
[4]
  TGI: > 100 µM
[5]
  TGI: > 100 µM
[6]
  TGI: > 100 µM
[7]
  TGI: > 100 µM

## CC(=O)[CH-]C(=O)c1ccccc1.CC(=O)[CH-]C(=O)c1ccccc1.[O-]c1ccc2c(c1)OCO2.[O-]c1ccc2c(c1)OCO2.[Ti+4]
[2]
  GI50: 38.3 µM
  TGI: > 100 µM
[9]
  GI50: 37.7 µM
  TGI: > 100 µM
[5]
  GI50: 21.9 µM
  TGI: 54.5 µM

## COc1ccc([C@@H]2OC(=O)C3C2C(=O)O[C@H]3c2ccc(OC)c(OC)c2)cc1OC (stereo not given in full)
[3]
  TGI: > 100 µM
[4]
  TGI: > 100 µM
[9]
  TGI: > 100 µM
[5]
  TGI: > 100 µM
[8]
  TGI: > 100 µM
[6]
  TGI: > 100 µM
[7]
  TGI: > 100 µM

## COc1ccc2c(c1)CN1CCc3c(cc(OC)c(OC)c3OC)C1C2 (stereo not given)
[2]
  TGI: > 100 µM
[3]
  TGI: > 100 µM
[4]
  TGI: > 100 µM
[9]
  TGI: > 100 µM
[5]
  TGI: > 100 µM
[6]
  TGI: > 100 µM
[7]
  TGI: > 100 µM

## C1=CCCC=CCC1.C[PH+](C)C.C[PH+](C)C.C[PH+](C)C.[Cl-].[Ir]
[2]
  GI50: > 100 µM
  TGI: > 100 µM
[9]
  GI50: > 100 µM
  TGI: > 100 µM
[5]
  GI50: 39.8 µM
  TGI: > 100 µM
[6]
  GI50: > 100 µM
  TGI: > 100 µM

## O=C[C@@H](CO)O[C@H](C=O)n1cnc2c(=O)[nH]cnc21
[2]
  TGI: 395 µM
[3]
  TGI: 202 µM
[4]
  TGI: 1570 µM
[9]
  TGI: 1670 µM
[5]
  TGI: 1540 µM
[1]
  TGI: 1610 µM
[10]
  TGI: 257 µM
[11]
  TGI: 1570 µM
[6]
  TGI: 2170 µM
[7]
  TGI: 1690 µM

## C[C@]12C[C@H](O)[C@H]3[C@@H](CCC4=CC(=O)CC[C@@]43C)[C@@H]1CC[C@@H]2c1csc(-c2ccccc2)n1
[1]
  TGI: > 100 µM

## O=C1NC2C(O)CCCCC2C12CCCCC2 (stereo not given)
[2]
  TGI: > 100 µM
[3]
  TGI: > 100 µM
[4]
  TGI: > 100 µM
[9]
  TGI: > 100 µM
[5]
  TGI: > 100 µM
[8]
  TGI: > 100 µM
[6]
  TGI: > 100 µM
[7]
  TGI: > 100 µM

## N#Cc1cccc(N2C(=O)C3C4C=CC(C3C2=O)C2C(=O)N(c3cccc(C#N)c3)C(=O)C42)c1 (stereo not given)
[2]
  TGI: > 46.4 µM
[3]
  TGI: 42 µM
[4]
  TGI: > 31.6 µM
[9]
  TGI: > 100 µM
[1]
  TGI: > 100 µM
[8]
  TGI: 42.9 µM
[6]
  TGI: 33.7 µM
[7]
  TGI: 36.2 µM

## COC(=O)CC[C@]12C[C@]13CC[C@]1(C)C4C(C)C[C@]5(CC(C)C(=O)O5)OC4CC1(C)C3CCC2C(C)(C)O (stereo not given in full)
[2]
  TGI: > 100 µM
[3]
  TGI: > 100 µM
[4]
  TGI: > 100 µM
[9]
  TGI: > 100 µM
[5]
  TGI: > 100 µM
[6]
  TGI: > 100 µM
[7]
  TGI: 87.6 µM

## COc1cc2cnc3c4cc(OCc5ccccc5)ccc4ccc3c2cc1OC
[2]
  TGI: > 100 µM
[3]
  TGI: 80.4 µM
[9]
  TGI: > 100 µM
[5]
  TGI: > 100 µM
[8]
  TGI: 98.8 µM
[6]
  TGI: 65.4 µM

## C=C1C[C@@H]2C[C@@H](C)CC(O)[C@]2(CCCN)C1O (stereo not given in full)
[2]
  TGI: > 100 µM
[3]
  TGI: > 100 µM
[4]
  TGI: > 100 µM
[9]
  TGI: > 100 µM
[5]
  TGI: > 100 µM
[8]
  TGI: > 100 µM
[6]
  TGI: > 100 µM
[7]
  TGI: > 100 µM

## CC1c2[nH]c3ccccc3c2CCN1O (stereo not given)
[2]
  TGI: > 100 µM
[3]
  TGI: > 100 µM
[4]
  TGI: > 100 µM
[9]
  TGI: > 100 µM
[5]
  TGI: > 100 µM
[8]
  TGI: > 100 µM
[6]
  TGI: > 100 µM

## O=c1/c(=N\Nc2ccccc2)c2cccc3ccc4cccc1c4c32
[1]
  TGI: > 100 µM
